Assay results published in patent US9850283B2, “Macrocyclic inhibitors of the PD-1/PD-L1 and CD80(B7-1)/PD-L1 protein/protein interactions” (BRISTOL-MYERS SQUIBB COMPANY, priority 2013, dated 2017).
Where two headings read alike, the source gives them in different places. Starred links: 1 amine or outer side, 2 acyl side, 3 side chain; linkers in the order of their positions; H or OH if unused. Positions of bridges follow the written chain, without caps; N, C: chain ends. Non-standard residues stand in square brackets, D forms with d. Residues, ends and D or L forms follow the SMILES beside them. ξ: configuration not given here. X3 = O=C([C@@H]1C[C@@H](Cc2ccc(F)cc2)CN1[*:1])[*:2]; Tyr(3,5-Br2) = N[C@@H](Cc1cc(Br)c(O)c(Br)c1)C(=O)O; Bta = N[C@@H](Cc1csc2ccccc12)C(=O)O; ξPro(4R-OH) = O=C(O)C1C[C@@H](O)CN1; Hyp = O=C(O)[C@@H]1C[C@@H](O)CN1; NMeF = CN[C@@H](Cc1ccccc1)C(=O)O; NMeD = CN[C@@H](CC(=O)O)C(=O)O; dNMeNle = CCCC[C@@H](NC)C(=O)O; NMeNle = CCCC[C@H](NC)C(=O)O; hSer = N[C@@H](CCO)C(=O)O; NMeA = CN[C@@H](C)C(=O)O; Orn = NCCC[C@H](N)C(=O)O; Dab = NCC[C@H](N)C(=O)O; Dap = NC[C@H](N)C(=O)O; ξPip = O=C(O)C1CCCCN1; ξC = NC(CS)C(=O)O; Sar = CNCC(=O)O

Tests used:
Human PD-L1/PD-1 = target: T1, Human PD-L1/PD-1 (Homo sapiens, UniProt Q9NZQ7); test: HTRF PD-1-Ig/PD-L1-His binding assay (human PD-L1); settings: cluster symbol; read-out: HTRF IC50 cluster
T1 construct: made in house; host or cells: HEK293T
Outline: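 The time-resolved fluorescence signal comes from Eu-cryptate anti-Ig (1 nM) and APC anti-His (20 nM) antibodies bound to a PD-1-Ig/PD-L1-His complex. Both partners lack transmembrane regions.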

[1] = target: T2, LK35.2-hPD-L1 cells / PE-labeled PD-1-Ig (Homo sapiens, UniProt Q9NZQ7); test: LK35.2-hPD-L1 cell binding high-content screening assay; assay type: cell-based; settings: cluster symbol, read-out: CBA IC50 cluster
T2 construct: expressed in transfected cells; host or cells: LK35.2 mouse B cell line
Outline: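 Fluorescent PD-1-Ig binding to PD-L1-expressing LK35.2 cells, imaged after washing. Conditions: 1 nM PE-PD-1-Ig, 37 °C, 1 h, RPMI with 10% fetal calf serum.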

[2] = cell line of CBA not given (LK35.2-hPD-L1 or 293T-hPD-L1)
[3] = cell binding assay, cell line not given

T1 sequence (Q9NZQ7 with tags, fused parts or gaps): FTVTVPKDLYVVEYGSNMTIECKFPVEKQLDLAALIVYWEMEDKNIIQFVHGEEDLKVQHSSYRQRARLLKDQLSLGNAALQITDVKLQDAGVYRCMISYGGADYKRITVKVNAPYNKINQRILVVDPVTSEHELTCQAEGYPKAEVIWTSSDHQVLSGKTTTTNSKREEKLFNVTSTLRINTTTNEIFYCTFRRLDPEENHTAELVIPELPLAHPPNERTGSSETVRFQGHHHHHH
T2 sequence (Q9NZQ7 19-290): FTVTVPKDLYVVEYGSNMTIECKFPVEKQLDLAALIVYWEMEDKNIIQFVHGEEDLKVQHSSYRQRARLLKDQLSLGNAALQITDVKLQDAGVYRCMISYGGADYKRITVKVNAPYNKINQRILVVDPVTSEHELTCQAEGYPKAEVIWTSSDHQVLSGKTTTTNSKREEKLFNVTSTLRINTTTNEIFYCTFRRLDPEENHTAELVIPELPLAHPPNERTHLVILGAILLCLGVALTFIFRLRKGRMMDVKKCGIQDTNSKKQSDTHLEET

SMILES	IC50 (Human PD-L1/PD-1) [nM]	IC50 [1, 2] [nM]	IC50 [1, 3] [nM]
CCCC[C@H]1C(=O)N(C)[C@@H](CCCC)C(=O)N[C@@H](CCCNC(=N)N)C(=O)N[C@H](C(=O)NCC(N)=O)CSCC(=O)N[C@@H](Cc2ccc(O)cc2)C(=O)N(C)[C@@H](C)C(=O)N[C@@H](CC(N)=O)C(=O)N2CCC[C@H]2C(=O)N[C@@H](Cc2cnc[nH]2)C(=O)N[C@@H](CC(C)C)C(=O)N2C[C@H](O)C[C@H]2C(=O)N[C@@H](Cc2c[nH]c3ccccc23)C(=O)N[C@@H](CO)C(=O)N[C@@H](Cc2c[nH]c3ccccc23)C(=O)N1C [Example 1119]	6.76 to 30.3	0.158 to 4.71	–
CCCC[C@H]1C(=O)N(C)CC(=O)N[C@@H](CC(=O)O)C(=O)N[C@@H](CC2CCCCC2)C(=O)N(C)[C@@H](Cc2ccccc2)C(=O)N[C@@H](Cc2ccc(O)cc2)C(=O)N(C)CC(=O)N[C@@H](Cc2c[nH]c3ccccc23)C(=O)N[C@@H](Cc2ccc(O)cc2)C(=O)N[C@@H](CC(C)C)C(=O)N[C@H](C(=O)NCC(N)=O)CSCC(=O)N[C@@H](Cc2ccccc2)C(=O)N(C)[C@@H](Cc2ccccc2)C(=O)N1C [Example 3159] (HELM PEPTIDE1{[O=C(C[*:3])[*:2]].F.[meF].[CCCC[C@@H](C(=O)[*:2])N(C)[*:1]].[Sar].D.[Cha].[meF].Y.[Sar].W.Y.L.C.G.[am]}$PEPTIDE1,PEPTIDE1,1:R3-14:R3$$$V2.0)	> 30.5	> 74.3	–
CCCC[C@H]1C(=O)N(C)CC(=O)N[C@@H](CC(=O)O)C(=O)N[C@@H](C(C)C)C(=O)N(C)[C@@H](Cc2ccccc2)C(=O)N[C@@H](Cc2ccc(O)cc2)C(=O)N(C)CC(=O)N[C@@H](Cc2c[nH]c3ccccc23)C(=O)N[C@@H](Cc2cc(Br)c(O)c(Br)c2)C(=O)N[C@@H](CC(C)C)C(=O)N[C@H](C(=O)NCC(N)=O)CSCC(=O)N[C@@H](Cc2ccccc2)C(=O)N(C)[C@@H](Cc2ccccc2)C(=O)N1C [Example 3112] ({CH2CO}-F[NMeF][NMeNle][Sar]DV[NMeF]Y[Sar]W[Tyr(3,5-Br2)]LCG-NH2; thioether N-13)	> 30.5	> 74.3	–
CCCC[C@H]1C(=O)N(C)[C@@H](CCCC)C(=O)N[C@@H](CCC(=O)O)C(=O)N[C@H](C(=O)NCC(N)=O)CSCC(=O)N[C@@H](Cc2ccc(O)cc2)C(=O)N(C)[C@@H](C)C(=O)N[C@@H](CC(=O)O)C(=O)N2CCC[C@H]2C(=O)N[C@@H](Cc2c[nH]cn2)C(=O)N[C@@H](CCCCN)C(=O)N2C[C@H](Cc3ccc(F)cc3)C[C@H]2C(=O)N[C@@H](Cc2c[nH]c3ccccc23)C(=O)N[C@@H](CCCCN)C(=O)N[C@@H](Cc2c[nH]c3ccccc23)C(=O)N1C [Example 13014] ({CH2CO}-Y[NMeA]DPHK[X3]WKW[NMeNle][NMeNle]ECG-NH2; thioether N-14)	0.385 to 6.74	–	> 74.3
CCCC[C@@H]1C(=O)N(C)[C@H](CCCC)C(=O)N[C@@H](CCCNC(=N)N)C(=O)N[C@@H](C(=O)NCC(N)=O)CSCC(=O)N[C@@H](Cc2ccc(O)cc2)C(=O)N2CCCCC2C(=O)N[C@H](CC(=O)O)C(=O)N2CCC[C@H]2C(=O)N[C@H](Cc2c[nH]cn2)C(=O)N[C@@H](CCCN)C(=O)N2C[C@H](O)CC2C(=O)N[C@H](Cc2c[nH]c3ccccc23)C(=O)N[C@@H](CO)C(=O)N[C@@H](Cc2c[nH]c3ccccc23)C(=O)N1C (stereo partly drawn) [Example 1218] ({CH2CO}-Y[ξPip][dD]P[dH][Orn][ξPro(4R-OH)][dW]SW[dNMeNle][dNMeNle]R[dC]G-NH2; thioether N-14)	6.76 to 30.3	4.78 to 72.9	–
CCCC[C@H]1C(=O)N(C)[C@@H](CCCC)C(=O)N[C@@H](CCCNC(=N)N)C(=O)N[C@H](C(=O)NCC(N)=O)CSCC(=O)N[C@@H](Cc2ccc(O)cc2)C(=O)N(C)[C@@H](CC(=O)O)C(=O)N[C@@H](CC(N)=O)C(=O)N2CCC[C@H]2C(=O)N[C@@H](Cc2cnc[nH]2)C(=O)N[C@@H](CC(C)C)C(=O)N2CCC[C@H]2C(=O)N[C@@H](Cc2c[nH]c3ccccc23)C(=O)N[C@@H](CO)C(=O)N[C@@H](Cc2csc3ccccc23)C(=O)N1C [Example 1190] ({CH2CO}-Y[NMeD]NPHLPWS[Bta][NMeNle][NMeNle]RCG-NH2; thioether N-14)	> 30.5	> 74.3	–
CCCC[C@H]1C(=O)N(C)CC(=O)N[C@@H](CC(=O)O)C(=O)N[C@@H](C(C)C)C(=O)N(C)[C@@H](Cc2ccccc2)C(=O)N[C@@H](Cc2ccc(O)cc2)C(=O)N(C)CC(=O)N[C@@H](Cc2c[nH]c3ccccc23)C(=O)N[C@@H](Cc2ccc(O)cc2)C(=O)N[C@H](C(=O)NCC(N)=O)CSCC(=O)N[C@@H](Cc2ccccc2)C(=O)N(C)[C@@H](Cc2ccccc2)C(=O)N1C [Example 3054] (HELM PEPTIDE1{[O=C(C[*:3])[*:2]].F.[meF].[CCCC[C@@H](C(=O)[*:2])N(C)[*:1]].[Sar].D.V.[meF].Y.[Sar].W.Y.C.G.[am]}$PEPTIDE1,PEPTIDE1,1:R3-13:R3$$$V2.0)	> 30.5	> 74.3	–
CCCC[C@H]1C(=O)N(C)[C@@H](CCCC)C(=O)N[C@@H](CCCN)C(=O)N[C@H](C(=O)NCC(N)=O)CSCC(=O)N[C@@H](Cc2ccc(O)cc2)C(=O)N2CCC[C@H]2C(=O)N[C@@H](CC(=O)O)C(=O)N2CCC[C@H]2C(=O)N[C@@H](CN)C(=O)N[C@@H](CC(=O)O)C(=O)N2C[C@H](O)C[C@H]2C(=O)N[C@@H](Cc2c[nH]c3ccccc23)C(=O)N[C@@H](CCN)C(=O)N[C@@H](Cc2csc3ccccc23)C(=O)N1C [Example 1181] ({CH2CO}-YPDP[Dap]D[Hyp]W[Dab][Bta][NMeNle][NMeNle][Orn]CG-NH2; thioether N-14)	6.76 to 30.3	> 74.3	–
CCCC[C@H]1C(=O)N(C)[C@@H](CCCC)C(=O)N[C@@H](CCCNC(=N)N)C(=O)NC(C(=O)NCC(N)=O)CSCC(=O)N[C@@H](Cc2ccc(O)cc2)C(=O)N(C)[C@@H](C)C(=O)N[C@@H](CC(N)=O)C(=O)N2CCC[C@H]2C(=O)N[C@@H](Cc2cnc[nH]2)C(=O)N[C@@H](CC(C)C)C(=O)N2C[C@H](O)C[C@H]2C(=O)N[C@@H](Cc2c[nH]c3ccccc23)C(=O)N[C@@H](CCO)C(=O)N[C@@H](Cc2csc3ccccc23)C(=O)N1C (stereo partly shown) [Example 9048] ({CH2CO}-Y[NMeA]NPHL[Hyp]W[hSer][Bta][NMeNle][NMeNle]R[ξC]G-NH2; thioether N-14)	0.385 to 6.74	–	0.158 to 4.71
CCCC[C@H]1C(=O)N(C)[C@@H](CCCC)C(=O)N[C@@H](C)C(=O)N[C@H](C(=O)NCC(N)=O)CSCC(=O)N[C@@H](Cc2ccc(O)cc2)C(=O)N(C)[C@@H](C)C(=O)N[C@@H](CC(N)=O)C(=O)N2CCC[C@H]2C(=O)N[C@@H](Cc2cnc[nH]2)C(=O)N[C@@H](CC(C)C)C(=O)N2CCC[C@H]2C(=O)N[C@@H](Cc2c[nH]c3ccccc23)C(=O)N[C@@H](Cc2ccc(O)cc2)C(=O)N[C@@H](Cc2csc3ccccc23)C(=O)N1C [Example 1050] ({CH2CO}-Y[NMeA]NPHLPWY[Bta][NMeNle][NMeNle]ACG-NH2; thioether N-14)	> 30.5	4.78 to 72.9	–
CCCC[C@H]1C(=O)N(C)[C@@H](CCCC)C(=O)N[C@@H](C)C(=O)N[C@H](C(=O)NCC(N)=O)CSCC(=O)N[C@@H](Cc2ccc(O)cc2)C(=O)N(C)[C@@H](C)C(=O)N[C@@H](CC(=O)O)C(=O)N2CCC[C@H]2C(=O)N[C@@H](Cc2cnc[nH]2)C(=O)N[C@@H](CCC(=O)O)C(=O)N2C[C@H](O)C[C@H]2C(=O)N[C@@H](Cc2c[nH]c3ccccc23)C(=O)N[C@@H](CCN)C(=O)N[C@@H](Cc2c[nH]c3ccccc23)C(=O)N1C [Example 5037] ({CH2CO}-Y[NMeA]DPHE[Hyp]W[Dab]W[NMeNle][NMeNle]ACG-NH2; thioether N-14)	0.385 to 6.74	–	0.158 to 4.71
CCCC[C@H]1C(=O)N(C)CC(=O)N[C@@H](CC(=O)O)C(=O)N[C@@H](CCCNC(=N)N)C(=O)N(C)[C@@H](Cc2ccccc2)C(=O)N[C@@H](Cc2ccc(O)cc2)C(=O)N(C)CC(=O)N[C@@H](Cc2c[nH]c3ccccc23)C(=O)N[C@@H](Cc2ccc(O)cc2)C(=O)N[C@@H](CC(C)C)C(=O)N[C@H](C(=O)NCC(N)=O)CSCC(=O)N[C@@H](Cc2ccccc2)C(=O)N(C)[C@@H](Cc2ccccc2)C(=O)N1C [Example 3151] (HELM PEPTIDE1{[O=C(C[*:3])[*:2]].F.[meF].[CCCC[C@@H](C(=O)[*:2])N(C)[*:1]].[Sar].D.R.[meF].Y.[Sar].W.Y.L.C.G.[am]}$PEPTIDE1,PEPTIDE1,1:R3-14:R3$$$V2.0)	> 30.5	> 74.3	–
CCCC[C@H]1C(=O)N(C)[C@@H](COc2cccc(C)c2)C(=O)N[C@@H](CC(C)C)C(=O)N[C@H](C(=O)NCC(N)=O)CSCC(=O)N[C@@H](Cc2ccc(O)cc2)C(=O)N(C)[C@@H](C)C(=O)N[C@@H](CC(N)=O)C(=O)N2CCC[C@H]2C(=O)N[C@@H](CN)C(=O)N[C@@H](CC(C)C)C(=O)N2C[C@H](O)C[C@H]2C(=O)N[C@@H](Cc2c[nH]c3ccccc23)C(=O)N[C@@H](CCN)C(=O)N[C@@H](Cc2c[nH]c3ccccc23)C(=O)N1C [Example 6029]	0.385 to 6.74	–	4.78 to 72.9
CCCC[C@H]1C(=O)N(C)[C@@H](CCCC)C(=O)N[C@@H](CCCNC(=N)N)C(=O)N[C@H](C(=O)NCC(N)=O)CSCC(=O)N[C@@H](Cc2ccccc2)C(=O)N(C)[C@@H](C)C(=O)N[C@@H](CC(N)=O)C(=O)N2CCC[C@H]2C(=O)N[C@@H](Cc2cnc[nH]2)C(=O)N[C@@H](CC(C)C)C(=O)N(C)CC(=O)N[C@@H](Cc2c[nH]c3ccccc23)C(=O)N[C@@H](CCN)C(=O)N[C@@H](Cc2c[nH]c3ccccc23)C(=O)N1C [Example 5001] ({CH2CO}-F[NMeA]NPHL[Sar]W[Dab]W[NMeNle][NMeNle]RCG-NH2; thioether N-14)	0.385 to 6.74	–	4.78 to 72.9
